For five compounds, IC50 results are on record in patent US20220306695A1, “COMPSTATIN ANALOGUES AND THEIR MEDICAL USES” (priority 2019, published 2022).

The experiment deals with classical complement pathway. The experiment is described as follows: In vitro haemolysis assay (inhibition of classical complement pathway). In kind it is cell-based, human. As to conditions: Table 3; human serum, sensitized sheep red blood cells; read-out: IC50[nM], in vitro analysis of inhibition of hemolysis. In a few lines: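 Serially diluted compound (9 points) was preincubated 15 min at room temperature with diluted human serum, titrated per batch to give 70-90% maximal haemolysis, in Tris/casein buffer pH 7.4 with Mg2+/Ca2+. Antibody-sensitized sheep erythrocytes were then added for 30 min at 37° C, and the reaction was stopped with EDTA. Haemolysis was read at A405, with IC50 from 4PL fit.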

The structures appear in SMILES notation. Starred links: 1 amine or outer side, 2 acyl side, 3 side chain; linkers in the order of their positions; H or OH if unused. Positions of bridges follow the written chain, without caps; N, C: chain ends. Non-standard residues stand in square brackets, D forms with d. Residues, ends and D or L forms follow the SMILES beside them. Groups on a side chain read outwards from the residue. *: point of attachment. X1 = O=C(O)CCCCCCCCCCCCCCC(=O)N1CCN(CC(=O)*)CC1; Trp(1-Me) = Cn1cc(C[C@H](N)C(=O)O)c2ccccc21; C16 diacid = O=C(O)CCCCCCCCCCCCCCC(=O)*; γGlu = O=C(O)[C@H](CCC(=O)[*:2])N[*:1]; AEEA = NCCOCCOCC(=O)O; Sar = CNCC(=O)O

With `CC[C@H](C)[C@H](NC(C)=O)C(=O)N[C@H]1CSSC[C@@H](C(=O)N[C@H](C(=O)N[C@@H](CCC(=O)O)C(=O)NCC(=O)N[C@@H](CCCCNC(=O)COCCOCCNC(=O)COCCOCCNC(=O)CN2CCN(C(=O)CCCCCCCCCCCCCCC(=O)O)CC2)C(N)=O)[C@@H](C)O)NC(=O)[C@H](CCCNC(=N)N)NC(=O)[C@H](Cc2c[nH]cn2)NC(=O)[C@H](CCC(=O)O)NC(=O)CNC(=O)[C@H](Cc2c[nH]c3ccccc23)NC(=O)[C@H](CC(=O)O)NC(=O)[C@H](CCC(N)=O)NC(=O)[C@H](Cc2c[nH]c3ccccc23)NC(=O)[C@H]([C@@H](C)CC)NC1=O` [Compound 95] (Ac-ICIWQDWGEHRCTEGK([AEEA-AEEA-X1])-NH2; disulfide 2-12), the IC50 (commonly the point on the concentration scale where inhibition reaches its midpoint) was under 500 nM.

Take `CC[C@H](C)[C@@H]1NC(=O)[C@@H](NC(=O)[C@H](Cc2ccccc2)NC(=O)[C@H](CCC(=O)O)NC(=O)[C@H](CO)NC(C)=O)CSSC[C@@H](C(=O)N(C)CC(=O)N[C@@H](CCC(=O)O)C(=O)NCC(=O)N[C@@H](CCC(=O)O)C(=O)NCCOCCOCC(=O)NCCOCCOCC(=O)N[C@@H](CCCCNC(=O)CC[C@H](NC(=O)CNC(=O)CC[C@H](NC(=O)CCCCCCCCCCCCCCC(=O)O)C(=O)O)C(=O)O)C(N)=O)NC(=O)[C@H](CCCNC(=N)N)NC(=O)[C@H](Cc2c[nH]cn2)NC(=O)[C@H](CCC(=O)O)NC(=O)CNC(=O)[C@H](Cc2c[nH]c3ccccc23)NC(=O)[C@H](CC(=O)O)NC(=O)[C@H](CCC(N)=O)NC(=O)[C@H](Cc2cn(C)c3ccccc23)NC1=O` [Compound 127] (Ac-SEFCI[Trp(1-Me)]QDWGEHRC[Sar]EGE[AEEA][AEEA]K([γGlu-Gly-γGlu-C16 diacid])-NH2; disulfide 4-14): the IC50 is under 100 nM.

For `CC[C@H](C)[C@@H]1NC(=O)[C@@H](NC(=O)[C@H](Cc2ccccc2)NC(=O)[C@H](CCC(=O)O)NC(=O)[C@H](CO)NC(C)=O)CSSC[C@@H](C(=O)N(C)CC(=O)N[C@@H](CCC(=O)O)C(=O)N[C@@H](C)C(N)=O)NC(=O)[C@H](CCCNC(=N)N)NC(=O)[C@H](Cc2c[nH]cn2)NC(=O)[C@H](CCC(=O)O)NC(=O)CNC(=O)[C@H](Cc2c[nH]c3ccccc23)NC(=O)[C@H](CCC(=O)O)NC(=O)[C@H](CCC(N)=O)NC(=O)[C@H](Cc2cn(C)c3ccccc23)NC1=O` [Compound 83] (Ac-SEFCI[Trp(1-Me)]QEWGEHRC[Sar]EA-NH2; disulfide 4-14), the IC50 was under 100 nM.

With `CC[C@H](C)[C@@H]1NC(=O)[C@@H](NC(=O)CN(C)C(=O)[C@H](N)Cc2ccc(O)cc2)CSSC[C@@H](C(=O)N[C@H](C(=O)N[C@@H](CCC(=O)O)C(=O)N[C@@H](C)C(N)=O)[C@@H](C)O)NC(=O)[C@H](CCCNC(=N)N)NC(=O)[C@H](Cc2c[nH]cn2)NC(=O)[C@H](CCC(=O)O)NC(=O)CNC(=O)[C@H](Cc2c[nH]c3ccccc23)NC(=O)[C@H](CC(=O)O)NC(=O)[C@H](CCC(N)=O)NC(=O)[C@H](Cc2cn(C)c3ccccc23)NC1=O` [Compound 91] (H-[dY][Sar]CI[Trp(1-Me)]QDWGEHRCTEA-NH2; disulfide 3-13), the IC50 is under 100 nM.

Take `CC[C@H](C)[C@@H]1NC(=O)[C@@H](NC(=O)[C@H](Cc2ccc(O)cc2)NC(C)=O)CSSC[C@@H](C(=O)N[C@H](C(=O)N[C@@H](CCC(=O)O)C(=O)N[C@@H](CO)C(=O)NCC(=O)N[C@@H](C)C(N)=O)[C@@H](C)O)NC(=O)[C@H](CCCNC(=N)N)NC(=O)[C@H](Cc2c[nH]cn2)NC(=O)[C@H](CCC(=O)O)NC(=O)CNC(=O)[C@H](Cc2c[nH]c3ccccc23)NC(=O)[C@H](CC(=O)O)NC(=O)[C@H](CCC(N)=O)NC(=O)[C@H](Cc2cn(C)c3ccccc23)NC1=O` [Compound 69] (Ac-YCI[Trp(1-Me)]QDWGEHRCTESGA-NH2; disulfide 2-12): the IC50 was under 100 nM.
